Results: patent US8551984B2, “Aminopyrimidines as SYK inhibitors” (Merck Sharp & Dohme Corp., priority 2009, dated 2013)
Each block holds one compound with its values, some of them ahead of it.

Target: recombinant human SYK (GST-hSYK fusion protein) (Homo sapiens, UniProt P43405)
Assay: biochemical
Description: Homogeneous Time-Resolved Fluorescence (HTRF) Assay for the Recombinant Human SYK Enzyme:

SMILES: Cc1cc(Nc2nccc(C(F)(F)F)n2)cc(-c2cnc(C3(O)CCN(C(=O)c4ncc[nH]4)CC3)s2)c1 [Example 54A-28]
IC50 (RHSYK Activity, Table 54A): < 0.1 µM

SMILES: Cc1cc(Nc2nccc(C(F)(F)F)n2)cc(-c2cnc(C3(O)CCN(C(=O)c4c[nH]cn4)CC3)s2)c1 [Example 54A-29]
IC50 (RHSYK Activity, Table 54A): < 0.1 µM

SMILES: Cc1cc(Nc2nccc(C(F)(F)F)n2)cc(-c2cnc(C3(O)CCN(C(=O)c4nc[nH]n4)CC3)s2)c1 [Example 54A-30]
IC50 (RHSYK Activity, Table 54A): < 0.1 µM

SMILES: Cc1cc(Nc2nccc(C(F)(F)F)n2)cc(-c2cnc(C3(O)CCN(C(=O)c4c[nH]nn4)CC3)s2)c1 [Example 54A-31]
IC50 (RHSYK Activity, Table 54A): < 0.1 µM

SMILES: Cc1cc(Nc2nccc(C(F)(F)F)n2)cc(-c2cnc(C3(O)CCN(C(=O)C4CCOC4)CC3)s2)c1 (stereo not drawn) [Example 54A-32]
IC50 (RHSYK Activity, Table 54A): < 0.1 µM

SMILES: Cc1cc(Nc2nccc(C(F)(F)F)n2)cc(-c2cnc(C3(O)CCN(C(=O)C4CC(O)C4)CC3)s2)c1 (stereo not drawn) [Example 54A-33]
IC50 (RHSYK Activity, Table 54A): < 0.1 µM

SMILES: Cc1cc(Nc2nccc(C(F)(F)F)n2)cc(-c2cnc(C3(O)CCN(C(=O)c4ccccc4)CC3)s2)c1 [Example 54A-34]
IC50 (RHSYK Activity, Table 54A): < 0.1 µM

SMILES: Cc1cc(Nc2nccc(C(F)(F)F)n2)cc(-c2cnc(C3(O)CCN(C(=O)Cn4ccnc4)CC3)s2)c1 [Example 54A-35]
IC50 (RHSYK Activity, Table 54A): < 0.1 µM

SMILES: Cc1cc(Nc2nccc(C(F)(F)F)n2)cc(-c2cnc(C3(O)CCN(C(=O)Cc4c[nH]cn4)CC3)s2)c1 [Example 54A-36]
IC50 (RHSYK Activity, Table 54A): < 0.1 µM

SMILES: Cc1cc(Nc2nccc(C(F)(F)F)n2)cc(-c2cnc(C3(O)CCN(C(=O)Cn4cncn4)CC3)s2)c1 [Example 54A-37]
IC50 (RHSYK Activity, Table 54A): < 0.1 µM

SMILES: Cc1cc(Nc2nccc(C(F)(F)F)n2)cc(-c2cnc(C3(O)CCN(C(=O)[C@@H]4CCC(=O)N4)CC3)s2)c1 [Example 54A-38]
IC50 (RHSYK Activity, Table 54A): < 0.1 µM

SMILES: Cc1cc(Nc2nccc(C(F)(F)F)n2)cc(-c2cnc(C3(O)CCN(C(=O)C4CNC(=O)N4)CC3)s2)c1 (stereo not drawn) [Example 54A-39]
IC50 (RHSYK Activity, Table 54A): < 0.1 µM

SMILES: Cc1cc(Nc2nccc(C(F)(F)F)n2)cc(-c2cnc(C3(O)CCN(C(=O)CC4CCOC4)CC3)s2)c1 (stereo not drawn) [Example 54A-40]
IC50 (RHSYK Activity, Table 54A): < 0.1 µM

SMILES: Cc1cc(Nc2nccc(C(F)(F)F)n2)cc(-c2cnc(C3(O)CCN(C(=O)C4CCCOC4)CC3)s2)c1 (stereo not drawn) [Example 54A-41]
IC50 (RHSYK Activity, Table 54A): < 0.1 µM

SMILES: Cc1cc(Nc2nccc(C(F)(F)F)n2)cc(-c2cnc(C3(O)CCN(C(=O)CC4CCCO4)CC3)s2)c1 (stereo not drawn) [Example 54A-42]
IC50 (RHSYK Activity, Table 54A): < 0.1 µM

SMILES: CCOC(=O)CC(=O)N1CCC(O)(c2ncc(-c3cc(C)cc(Nc4nccc(C(F)(F)F)n4)c3)s2)CC1 [Example 54A-43]
IC50 (RHSYK Activity, Table 54A): < 0.1 µM

SMILES: Cc1cc(Nc2nccc(C(F)(F)F)n2)cc(-c2cnc(C3(O)CCN(C(=O)C(C)(CO)CO)CC3)s2)c1 [Example 54A-44]
IC50 (RHSYK Activity, Table 54A): < 0.1 µM

SMILES: COC(=O)CN1CCC(O)(c2ncc(-c3cc(C)cc(Nc4nccc(C(F)(F)F)n4)c3)s2)CC1 [Example 54A-70]
IC50 (RHSYK Activity, Table 54A): < 0.1 µM

SMILES: COC(=O)CCN1CCC(O)(c2ncc(-c3cc(C)cc(Nc4nccc(C(F)(F)F)n4)c3)s2)CC1 [Example 54A-71]
IC50 (RHSYK Activity, Table 54A): < 0.1 µM

SMILES: COC(=O)C(C)N1CCC(O)(c2ncc(-c3cc(C)cc(Nc4nccc(C(F)(F)F)n4)c3)s2)CC1 (stereo not drawn) [Example 54A-72]
IC50 (RHSYK Activity, Table 54A): < 0.1 µM

SMILES: COC(=O)CCCN1CCC(O)(c2ncc(-c3cc(C)cc(Nc4nccc(C(F)(F)F)n4)c3)s2)CC1 [Example 54A-73]
IC50 (RHSYK Activity, Table 54A): < 0.1 µM

Continued, values first:

IC50 (RHSYK Activity, Table 54A): < 0.1 µM
SMILES: Cc1cc(Nc2nccc(C(F)(F)F)n2)cc(-c2cnc(C3(O)CCN(C(=O)Cc4cccnc4)CC3)s2)c1 [Example 54A-45]

IC50 (RHSYK Activity, Table 54A): < 0.1 µM
SMILES: Cc1cc(Nc2nccc(C(F)(F)F)n2)cc(-c2cnc(C3(O)CCN(C(=O)Cc4ccccn4)CC3)s2)c1 [Example 54A-46]

IC50 (RHSYK Activity, Table 54A): < 0.1 µM
SMILES: Cc1cc(Nc2nccc(C(F)(F)F)n2)cc(-c2cnc(C3(O)CCN(C(=O)CS(C)(=O)=O)CC3)s2)c1 [Example 54A-47]

IC50 (RHSYK Activity, Table 54A): < 0.1 µM
SMILES: Cc1cc(Nc2nccc(C(F)(F)F)n2)cc(-c2cnc(C3(O)CCN(C(=O)CCc4cn[nH]c4)CC3)s2)c1 [Example 54A-50]

IC50 (RHSYK Activity, Table 54A): < 0.1 µM
SMILES: Cc1cc(Nc2nccc(C(F)(F)F)n2)cc(-c2cnc(C3(O)CCN(C(=O)CCn4cncn4)CC3)s2)c1 [Example 54A-51]

IC50 (RHSYK Activity, Table 54A): < 0.1 µM
SMILES: Cc1cc(Nc2nccc(C(F)(F)F)n2)cc(-c2cnc(C3(O)CCN(C(=O)[C@@H]4CCCC(=O)N4)CC3)s2)c1 [Example 54A-52]

IC50 (RHSYK Activity, Table 54A): < 0.1 µM
SMILES: Cc1cc(Nc2nccc(C(F)(F)F)n2)cc(-c2cnc(C3(O)CCN(C(=O)CC4CCOCC4)CC3)s2)c1 [Example 54A-53]

IC50 (RHSYK Activity, Table 54A): < 0.1 µM
SMILES: COC(=O)C1(C(=O)N2CCC(O)(c3ncc(-c4cc(C)cc(Nc5nccc(C(F)(F)F)n5)c4)s3)CC2)CC1 [Example 54A-54]

IC50 (RHSYK Activity, Table 54A): < 0.1 µM
SMILES: C#Cc1ccc(C(=O)N2CCC(O)(c3ncc(-c4cc(C)cc(Nc5nccc(C(F)(F)F)n5)c4)s3)CC2)cc1 [Example 54A-55]

IC50 (RHSYK Activity, Table 54A): < 0.1 µM
SMILES: Cc1cc(Nc2nccc(C(F)(F)F)n2)cc(-c2cnc(C3(O)CCN(C(=O)c4ccc(C#N)cc4)CC3)s2)c1 [Example 54A-56]

IC50 (RHSYK Activity, Table 54A): < 0.1 µM
SMILES: Cc1cc(Nc2nccc(C(F)(F)F)n2)cc(-c2cnc(C3(O)CCN(C(=O)c4ccc(O)c(F)c4)CC3)s2)c1 [Example 54A-57]

IC50 (RHSYK Activity, Table 54A): < 0.1 µM
SMILES: Cc1cc(Nc2nccc(C(F)(F)F)n2)cc(-c2cnc(C3(O)CCN(C(=O)CC(N)C(F)(F)F)CC3)s2)c1 (stereo not drawn) [Example 54A-58]

IC50 (rhSYK Activity, Table 54D): < 0.1 µM
SMILES: Cc1cc(Nc2nccc(C(C)C)n2)cc(-c2cnc(C3(O)CCCNCC3)s2)c1 (stereo not drawn) [Example 54D-1]

IC50 (rhSYK Activity, Table 54D): < 0.1 µM
SMILES: CC(=O)N1CCCC(O)(c2ncc(-c3cc(C)cc(Nc4nccc(C(F)(F)F)n4)c3)s2)CC1 (stereo not drawn) [Example 54D-2]

IC50 (rhSYK Activity, Table 54D): < 0.1 µM
SMILES: Cc1cc(Nc2nccc(C(C)C)n2)cc(-c2cnc(C3(O)CCCN(C(=O)C(C)O)CC3)s2)c1 (stereo not drawn) [Example 54D-4]

IC50 (rhSYK Activity, Table 54D): < 0.1 µM
SMILES: CCC(=O)N1CCCC(O)(c2ncc(-c3cc(C)cc(Nc4nccc(C(F)(F)F)n4)c3)s2)CC1 (stereo not drawn) [Example 54D-5]

IC50 (rhSYK Activity, Table 54D): < 0.1 µM
SMILES: Cc1cc(Nc2nccc(C(C)C)n2)cc(-c2cnc(C3(O)CCCN(C(=O)CC(N)=O)CC3)s2)c1 (stereo not drawn) [Example 54D-6]

IC50 (rhSYK Activity, Table 54D): < 0.1 µM
SMILES: Cc1cc(Nc2nccc(C(C)C)n2)cc(-c2cnc(C3(O)CCCN(C(=O)CC(=O)O)CC3)s2)c1 (stereo not drawn) [Example 54D-7]

IC50 (rhSYK Activity, Table 54D): < 0.1 µM
SMILES: Cc1cc(Nc2nccc(C(C)C)n2)cc(-c2cnc(C3(O)CCCN(C(=O)C(O)CO)CC3)s2)c1 (stereo not drawn) [Example 54D-8]

IC50 (rhSYK Activity, Table 54D): < 0.1 µM
SMILES: Cc1cc(Nc2nccc(C(F)(F)F)n2)cc(-c2cnc(C3(O)CCCN(C(=O)CC#N)CC3)s2)c1 (stereo not drawn) [Example 54D-9]

IC50 (rhSYK Activity, Table 54D): < 0.1 µM
SMILES: Cc1cc(Nc2nccc(C(F)(F)F)n2)cc(-c2cnc(C3(O)CCCN(C(=O)C4CC4)CC3)s2)c1 (stereo not drawn) [Example 54D-10]

IC50 (rhSYK Activity, Table 54D): < 0.1 µM
SMILES: C=CCC(=O)N1CCCC(O)(c2ncc(-c3cc(C)cc(Nc4nccc(C(F)(F)F)n4)c3)s2)CC1 (stereo not drawn) [Example 54D-11]

IC50 (rhSYK Activity, Table 54D): < 0.1 µM
SMILES: COCC(=O)N1CCCC(O)(c2ncc(-c3cc(C)cc(Nc4nccc(C(F)(F)F)n4)c3)s2)CC1 (stereo not drawn) [Example 54D-12]

IC50 (rhSYK Activity, Table 54D): < 0.1 µM
SMILES: Cc1cc(Nc2nccc(C(F)(F)F)n2)cc(-c2cnc(C3(O)CCCN(C(=O)CCO)CC3)s2)c1 (stereo not drawn) [Example 54D-13]

IC50 (rhSYK Activity, Table 54D): < 0.1 µM
SMILES: Cc1cc(Nc2nccc(C(F)(F)F)n2)cc(-c2cnc(C3(O)CCCN(C(=O)C(C)O)CC3)s2)c1 (stereo not drawn) [Example 54D-14]

IC50 (rhSYK Activity, Table 54D): < 0.1 µM
SMILES: Cc1cc(Nc2nccc(C(C)C)n2)cc(-c2cnc(C3(O)CCCN(C(=O)CCC(N)=O)CC3)s2)c1 (stereo not drawn) [Example 54D-15]

IC50 (rhSYK Activity, Table 54D): < 0.1 µM
SMILES: Cc1cc(Nc2nccc(C(F)(F)F)n2)cc(-c2cnc(C3(O)CCCN(C(=O)CCC#N)CC3)s2)c1 (stereo not drawn) [Example 54D-16]
